ChEMBL document CHEMBL5537113, “Discovery of 1,2-diaryl-3-oxopyrazolidin-4-carboxamides as a new class of MurA enzyme inhibitors and characterization of their antibacterial activity” (Eur J Med Chem, 2023)

Tests used:
Clostridioides difficile [1] = experiment: Antibacterial activity against Clostridioides difficile NR-49291 assessed as reduction in microbial growth incubated for 48 hrs by broth microdilution method; type: functional
Clostridioides difficile [2] = experiment: Selectivity ratio of MBC for antibacterial activity against Clostridioides difficile NR-49278 to MIC for antibacterial activity against Clostridioides difficile NR-49278; type: functional
Clostridioides difficile [3] = experiment: Antibacterial activity against Clostridioides difficile NR-32904 assessed as reduction in microbial growth incubated for 48 hrs by broth microdilution method; type: functional
Staphylococcus aureus [4] = experiment: Antibacterial activity against vancomycin resistant Staphylococcus aureus 10 assessed as reduction in microbial growth by CLSI based broth microdilution method; type: functional
Clostridioides difficile [5] = experiment: Antibacterial activity against Clostridioides difficile NR-49288 assessed as reduction in microbial growth incubated for 48 hrs by broth microdilution method; type: functional
[6] = Stability of compound in LB broth medium at 10 uM incubated for 24 hrs at 37 degC by UHPLC-MS/MS analysis; type: physicochemical
Staphylococcus aureus [7] = experiment: Antibacterial activity against methicillin resistant Staphylococcus aureus USA300 assessed as reduction in microbial growth by CLSI based broth microdilution method; type: functional
Clostridioides difficile [8] = experiment: Antibacterial activity against Clostridioides difficile NR-32895 assessed as reduction in microbial growth incubated for 48 hrs by broth microdilution method; type: functional
Clostridioides difficile [9] = experiment: Antibacterial activity against Clostridioides difficile NR-49283 assessed as reduction in microbial growth incubated for 48 hrs by broth microdilution method; type: functional
Clostridioides difficile [10] = experiment: Antibacterial activity against Clostridioides difficile NR-49286 assessed as reduction in microbial growth incubated for 48 hrs by broth microdilution method; type: functional
Clostridioides difficile [11] = experiment: Antibacterial activity against Clostridioides difficile NR-49282 assessed as reduction in microbial growth incubated for 48 hrs by broth microdilution method; type: functional
Staphylococcus aureus [12] = experiment: Antibacterial activity against methicillin sensitive Staphylococcus aureus NRS107 assessed as reduction in microbial growth by CLSI based broth microdilution method; type: functional
Caco-2 [13] = experiment: Cytotoxicity against human Caco-2 cells assessed as reduction in cell viability at > 128 ug/ml after 24 hrs by MTS assay; type: toxicity, cell-based; details: caco-2, 24 h, dose > 128 µg/ml
Clostridioides difficile [14] = experiment: Bactericidal activity against Clostridioides difficile NR-49278 assessed as reduction in microbial growth by broth microdilution method; type: functional
Clostridioides difficile [15] = experiment: Bactericidal activity against Clostridioides difficile NR-32895 assessed as reduction in microbial growth by broth microdilution method; type: functional
Clostridioides difficile [16] = experiment: Antibacterial activity against Clostridioides difficile NR-49277 assessed as reduction in microbial growth incubated for 48 hrs by broth microdilution method; type: functional
[17] = tested on: UDP-N-acetylglucosamine 1-carboxyvinyltransferase (Escherichia coli K-12), P0A749 [C115D]; experiment: Inhibition of Escherichia coli MurA C115D mutant using UNAG as substrate pre incubated for 15 mins followed by substrate addition and measured after 15 mins by microplate reader analysis; details: time 30.0 min
Sequence of UDP-N-acetylglucosamine 1-carboxyvinyltransferase (Escherichia coli K-12), P0A749 [C115D] (P0A749 whole entry C115D): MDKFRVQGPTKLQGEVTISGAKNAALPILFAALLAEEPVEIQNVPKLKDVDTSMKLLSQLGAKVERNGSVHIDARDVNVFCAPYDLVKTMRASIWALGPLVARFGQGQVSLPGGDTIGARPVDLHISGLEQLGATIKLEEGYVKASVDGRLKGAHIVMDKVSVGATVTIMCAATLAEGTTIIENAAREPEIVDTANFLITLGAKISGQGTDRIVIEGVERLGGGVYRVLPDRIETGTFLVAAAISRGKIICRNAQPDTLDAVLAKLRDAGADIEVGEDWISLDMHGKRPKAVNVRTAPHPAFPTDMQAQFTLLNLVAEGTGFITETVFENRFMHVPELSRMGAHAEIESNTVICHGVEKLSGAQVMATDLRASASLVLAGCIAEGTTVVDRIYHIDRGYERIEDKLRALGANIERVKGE

[18] = biological target: UDP-N-acetylglucosamine 1-carboxyvinyltransferase (Escherichia coli K-12, UniProt P0A749, C115D); experiment: Inhibition of Escherichia coli MurA C115D mutant at 50 uM using UNAG as substrate pre incubated for 15 mins followed by substrate addition and measured after 15 mins by microplate reader analysis relative to control
Sequence of UDP-N-acetylglucosamine 1-carboxyvinyltransferase (P0A749 whole entry C115D): as above

Caco-2 [19] = experiment: Cytotoxicity against human Caco-2 cells assessed as reduction in cell viability at 64 ug/ml after 24 hrs by MTS assay; type: toxicity, cell-based; details: caco-2, 24 h, dose 64 µg/ml
[20] = Drug uptake in Escherichia coli harboring tolC deletion mutant at 10 uM incubated for 30 mins by LC analysis; type: ADME; details: 0.5 h
[21] = Drug uptake in Escherichia coli harboring tolC deletion mutant assessed per 1.6x10^9 cells at 10 uM incubated for 30 mins by LC analysis; type: ADME; details: 0.5 h

SMILES | MIC (Clostridioides difficile [1]) [µg/mL] | Ratio (Clostridioides difficile [2]) | MIC (Clostridioides difficile [3]) [µg/mL] | MIC (Staphylococcus aureus [4]) [µg/mL] | MIC (Clostridioides difficile [5]) [µg/mL] | Stability [6] | MIC (Staphylococcus aureus [7]) [µg/mL] | MIC (Clostridioides difficile [8]) [µg/mL] | MIC (Clostridioides difficile [9]) [µg/mL] | MIC (Clostridioides difficile [10]) [µg/mL] | MIC (Clostridioides difficile [11]) [µg/mL] | MIC (Staphylococcus aureus [12]) [µg/mL] | MBC (Clostridioides difficile [14]) [µg/mL] | MBC (Clostridioides difficile [15]) [µg/mL] | MIC (Clostridioides difficile [16]) [µg/mL] | also measured
O=C(Nc1ncc([N+](=O)[O-])s1)C1CN(c2ccc(Cl)cc2)N(c2ccc(Cl)cc2)C1=O (stereo unspecified) | 1 | 1 | 0.5 | > 64 | 0.25 | Stable | 32 | 1 | 0.5 | 0.5 | 0.5 | 64 | 0.5 | 1 | 1 | Activity (Caco-2 [13]): Non-Toxic
O=C(Nc1ncc([N+](=O)[O-])s1)C1CN(c2cccc(Cl)c2)N(c2cccc(Cl)c2)C1=O (stereo unspecified) | 1 | 1 | 0.5 | 4 | 0.25 | Stable | 4 | 0.5 | 0.5 | 0.5 | 0.5 | 2 | 0.5 | 1 | 0.5 | inhibition [17]: 76%; IC50 [18]: 10.9 µM; Activity (Caco-2 [19]): Non-Toxic; Drug uptake [20]: 56 nM; Drug uptake [21]: 1.8 µM
